Here are results for 14 molecules from patent US5817670A, “Naphthyridine derivatives and pharmaceutical compositions thereof” (Yamanouchi Pharmaceutical Co., Ltd., priority 1994, dated 1998).

Counter-ions that a name gives are not always drawn.

One assay addresses type I phosphodiesterase. As to the kind of experiment: Phosphodiesterase inhibition activity (in vitro), Type I. In kind it is biochemical, rat. The text has this:
(§1) (A) In order to evaluate selectivity of the compounds of the present invention for type IV phosphodiesterase, types I, II, III and V phosphodiesterase isozymes were purified in the following manner.
(§2) 1) Solutions containing various phosphodiesterase (types I, II and III) isozymes were purified from rat heart muscle cells in the following manner. Under ether anesthesia, Wistar rat was subjected to thoracotomy to excise the heart. After removing blood by perfusion with physiological saline supplemented with heparin (1 unit/ml), the heart was finely chopped with scissors. This was suspended in buffer A (20 mM Bis-Tris, 5 mM dithioerythritol, 2 mM EGTA and 50 mM sodium acetate, pH 6.5) containing a protease inhibitor (50 μM phenyl-methyl-sulfonyl-fluoride, 5 μM pepstatin A, 40 μM leupeptin, 20 μM aprotinin or 2 mM benzamidine) and then the cells were disrupted using polytron and sonicator and subjected to ultracentrifugation (4° C., 100,000×g, 60 minutes) to give a soluble fraction.
(§3) 2) Solutions containing various phosphodiesterase isozymes were obtained from the thus obtained soluble fraction in the following manner. The thus, obtained soluble fraction was applied to a column of 1.6×10.0 cm packed with Q Sepharose which had been equilibrated with buffer A. Next, said column was washed with 300 ml of buffer A to remove non-absorbed protein. Phosphodiesterase was eluted with 200 ml of buffer A having 0.05 to 1.25M linear gradient of sodium acetate to collect about 40 fractions each containing 5.0 ml eluate. Each fraction was checked for cAMP- and cGMP-metabolizing phosphodiesterase activities. Of these fractions, a fraction having only cAMP-metabolizing activity and showing disappearance of the metabolizing activity by 0.1 μM cilostamide (a type III phosphodiesterase selective inhibitor) was used as the type III phosphodiesterase. […] These fractions were separately collected to be used as phosphodiesterase (types I, II and III) stock solutions for the examination of selectivity. p1 3) A solution containing type V phosphodiesterase was prepared from peripheral blood of a healthy person in the following manner. A 200 ml portion of physiological saline supplemented with dextran (3%) was added to 500 ml of heparinized peripheral blood and incubated at 37° C. for 40 minutes to effect precipitation of erythrocytes. The supernatant fluid after precipitation of erythrocytes was recovered and centrifuged once, and the resulting precipitate was suspended in buffer B (140 mM NaCl, 5 mM KCl, 5 mm glucose and 10 mM HEPES, pH 7.4), overlaid on a solution for density gradient centrifugation use (Ficoll solution) and then centrifuged at room temperature for 40 minutes at 450×g, thereby separating monocyte fraction and granulocyte fraction. The granulocyte fraction was washed once with buffer C (140 mM NaCl, 5 mM KCl, 1 mM CaCl2, 1 mM MgCl2, 5 mM glucose and 10 mM HEPES, pH 7.4) and suspended in buffer D (20 mM Bis-Tris, 5 mM dithioerythritol, 2 mM EGTA and 50 mM sodium acetate, pH 6.5) containing a protease inhibitor (40 μM leupeptin, 5 μM pepstatin A, 20 μM aprotinin, 50 μM phenyl-methyl-sulfonyl-fluoride or 2 mM benzamidine) and then the cells were disrupted using polytron and sonicator and subjected to ultracentrifugation (4° C., 100,000×g, 60 minutes) to give a soluble fraction.
(§4) (B) Inhibitory activities were measured using the thus obtained stock solutions of various phosphodiesterase isozymes.
(§5) 1) A predetermined amount of each compound to be tested was subjected to 10 minutes of reaction at 30° C. in a reaction mixture containing 40 mM Tris-HCl (pH 8.0), 5 mM MgCl2, 4 mM 2-mercaptoethanol, 10 μM rolipram (a type IV phosphodiesterase selective inhibitor), 1 μM cAMP, 10 nM ^3 H-cAMP (in the case of type V phosphodiesterase, 1 μM cAMP and 10 nM ^3 H-cAMP are replaced by 1 μM cGMP and 100 nM ^3 H-cGMP) and each of the isozyme stock solutions. […]

In assay [1] the target is type III phosphodiesterase. Nature of the assay: Phosphodiesterase inhibition activity (in vitro), Type III. In kind it is biochemical, rat.
Text: as §1, §2, §3, §4, §5

The target of assay [2] is T1, type II phosphodiesterase (Rattus norvegicus, UniProt Q01062).
T1 construct: purified from rat heart muscle cells; from tissue; host or cells: rat heart, soluble fraction, Q Sepharose
T1 sequence (Q01062 1-928): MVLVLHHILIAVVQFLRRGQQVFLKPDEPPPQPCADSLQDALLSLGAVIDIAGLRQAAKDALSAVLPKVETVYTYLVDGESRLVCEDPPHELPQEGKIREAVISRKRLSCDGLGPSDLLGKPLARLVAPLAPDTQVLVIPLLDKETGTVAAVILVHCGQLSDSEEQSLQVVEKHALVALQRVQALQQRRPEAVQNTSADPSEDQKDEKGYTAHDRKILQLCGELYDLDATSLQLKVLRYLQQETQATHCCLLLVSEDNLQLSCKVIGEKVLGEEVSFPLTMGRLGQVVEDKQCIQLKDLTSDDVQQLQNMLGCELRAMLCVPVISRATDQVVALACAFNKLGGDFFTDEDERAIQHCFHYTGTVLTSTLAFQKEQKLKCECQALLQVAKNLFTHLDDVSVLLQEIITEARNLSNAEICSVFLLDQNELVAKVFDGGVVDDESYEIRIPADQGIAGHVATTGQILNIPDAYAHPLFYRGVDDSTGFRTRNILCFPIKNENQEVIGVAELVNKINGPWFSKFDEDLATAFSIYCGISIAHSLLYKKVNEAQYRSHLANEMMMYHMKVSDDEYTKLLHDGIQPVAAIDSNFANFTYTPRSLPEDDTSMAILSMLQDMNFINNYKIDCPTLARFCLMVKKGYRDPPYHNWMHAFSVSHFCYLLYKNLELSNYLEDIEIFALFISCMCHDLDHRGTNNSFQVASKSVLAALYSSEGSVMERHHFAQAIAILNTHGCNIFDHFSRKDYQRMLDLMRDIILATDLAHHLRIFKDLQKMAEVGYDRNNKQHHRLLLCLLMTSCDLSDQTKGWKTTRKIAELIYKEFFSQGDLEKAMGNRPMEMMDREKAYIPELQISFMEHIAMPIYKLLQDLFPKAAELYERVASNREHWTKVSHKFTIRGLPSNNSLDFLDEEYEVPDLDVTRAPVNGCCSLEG
As to the kind of experiment: Phosphodiesterase inhibition activity (in vitro), Type II. Format: biochemical. The settings on record: Type II phosphodiesterase column.
Text: as §1, §2, §3, §4, §5

By IC50 is commonly meant the concentration that gives 50% inhibition. High values mean weaker potency, low ones greater potency. Turning to `CCn1c(=O)cc(-c2cccc(Cl)c2)c2cccnc21` [Example 15, 4-(3-Chlorophenyl)-1-ethyl-1,8-naphthyridin-2(1H)-one], the figures for the IC50 (against type I phosphodiesterase; in assay [1]; in assay [2]) were 0.0338 µM, 50.3 µM and 20.8 µM, respectively.
In the case of `Cc1cc(C)c2c(-c3cccc(Cl)c3)cc(=O)n(C)c2n1` [Example 24, 4-(3-chlorophenyl)-1,5,7-trimethyl-1,8-naphthyridin-2(1H)-one], the IC50 stood at 0.0419 µM at type I phosphodiesterase, 21.5 µM in assay [1] and 51.8 µM in assay [2].
For `CCc1cc(C)c2c(-c3ccccc3)cc(=O)n(C)c2n1` [Example 26, 7-Ethyl-1,5-dimethyl-4-phenyl-1,8-naphthyridin-2(1H)-one], in that order: 0.0234 µM, 56.2 µM and 30 µM.
For `CCc1cc(C)c2c(-c3cccc(Cl)c3)cc(=O)n(C)c2n1` [Example 27, 4-(3-Chlorophenyl)-7-ethyl-1,5-dimethyl-1,8-naphthyridin-2(1H)-one], in that order: 0.0213 µM, 15.5 µM and 25.6 µM.
For `CCn1c(=O)cc(-c2cccc(Cl)c2)c2c(C)cc(C)nc21` [Example 29, 4-(3-Chlorophenyl)-1-ethyl-5,7-dimethyl-1,8-naphthyridin-2(1H)-one], in that order: 0.0116 µM, 14.3 µM and 15.5 µM.
As for `CCn1c(=O)cc(-c2cccc(Br)c2)c2c(C)cc(C)nc21` [Example 30, 4-(3-Bromophenyl)-1-ethyl-5,7-dimethyl-1,8-naphthyridin-2(1H)-one], the half-maximal inhibitory concentration (IC50) at type I phosphodiesterase came to 0.0099 µM; in assay [1], 10.9 µM; in assay [2], 10.5 µM.
As to `CCc1cc(C)c2c(-c3cccc(Br)c3)cc(=O)n(CC)c2n1` [Example 31, 4-(3-bromophenyl)-1,7-diethyl-5-methyl-1,8-naphthyridin-2(1H)-one], the IC50 is 0.0043 µM against type I phosphodiesterase, greater than 30 µM in assay [1] and greater than 30 µM in assay [2].
`CCCn1c(=O)cc(-c2cccc(Br)c2)c2c(C)cc(CC)nc21` [Example 33, 4-(3-Bromophenyl)-7-ethyl-5-methyl-1-propyl-1,8-naphthyridin-2(1H)-one]: the IC50 on type I phosphodiesterase turned out to be 0.0143 µM; in assay [1], 17.7 µM; in assay [2] it was 35.4 µM.
For `CCc1cc(C)c2c(-c3cccc(Cl)c3)cc(=O)n(C3CC3)c2n1` [Example 35, 4-(3-Chlorophenyl)-1-cyclopropyl-7-ethyl-5-methyl-1,8-naphthyridin-2(1H)-on], in that order: 0.0242 µM, 34.4 µM and 22.3 µM.
Turning to `CCn1c(=O)cc(-c2ccccc2)c2c(C)cc(C)nc21` [Example 38, 1-Ethyl-5,7-dimethyl-4-phenyl-1,8-naphthyridin-2(1H)-one], the IC50 on type I phosphodiesterase was 0.0124 µM; in assay [1], greater than 30 µM; in assay [2], 26.1 µM.
For `CCc1cc(C)c2c(-c3ccccc3)cc(=O)n(CC)c2n1` [Example 40, 1,7-Diethyl-5-methyl-4-phenyl-1,8-naphthyridin-2(1H)-one], in that order: 0.0129 µM, 32.3 µM and 20.5 µM.
On to `CCc1cc(C)c2c(-c3cccc(Cl)c3)cc(=S)n(C)c2n1` [Example 43, 4-(3-chlorophenyl)-7-ethyl-1,5-dimethyl-1,8-naphthyridine-2(1H)-thione], for which the IC50 is 0.016 µM at type I phosphodiesterase, greater than 30 µM in assay [1] and greater than 30 µM in assay [2].
As for `CCn1c(=O)cc(C2CCCCC2)c2cccnc21` [Example 46, 4-cyclohexyl-1-ethyl-1,8-naphthyridin-2(1H)-one 0.45 hydrochloride 0.25 hydrate], the IC50 at type I phosphodiesterase is 0.0389 µM; in assay [1], greater than 30 µM; in assay [2], greater than 30 µM.
Take `CCc1cc(C)c2c(C3CCCCC3)cc(=O)n(CC)c2n1` [Example 49, 4-cyclohexyl-1,7-diethyl-5-methyl-1,8-naphthyridin-2(1H)-one]: the figures for the 50% inhibitory concentration (IC50) (on type I phosphodiesterase; in assay [1]; in assay [2]) were 0.0337 µM, 27.3 µM and 22.8 µM, respectively.
